Measurements as given in patent publication US8961986B2, “Peptide composition” (Apitope Technology (Bristol) Limited, priority 2000, dated 2015).

Test system: 81-111-responsive T-cell line and sub-lines
Assay: Reactivity of T cell lines and clones from peptide-primed mice to MBP 81-111 region peptides
Assay type: cell-based
Conditions: six clones generated
Method: In order to investigate T cell reactivity to the 81-111 region of MBP, lymph node cells from mice primed with 81-111 are stimulated with 81-111 in vitro and these cells are tested with a panel of overlapping 10-mer peptides with two residue shifts covering the 81-111 region (namely: 81-90, 83-92, 85-94, 87-96, 89-98, 91-100, 93-102, 95-104, 97-106, 99-108 and 101-111). The response pattern to peptides covering the 89-101 show stimulatory capacity for 5 adjacent peptides (N terminal 87-96 through to 95-104) reflecting the presence of at least two (and perhaps three) distinct epitopes.
In order to investigate this region further, three sub-lines are generated from the original 81-111-responsive T-cell line and these are retested with a panel of overlapping 10-mer peptides with one residue shift covering the 84-106 region. The results reveal the existence of three distinct but overlapping T cell epitopes within the 89-101 sequence: 89-94, 92-98 and 95-101 (see FIG. 14).

MBP 92-98: cryptic T cell epitope within MBP 89-101 (IRLFSRD; UniProt P02686 92-98, looked up, fragment)
T cell clones from mice primed with the 89-101 peptide responding: all six clones
